Test results from publication PMC2365111, “Cytotoxicity of Poly(Phenolic)Sulfonates and Their Sodium Salts in L1210 Lymphoid Leukemia Cells” (Metal-Based Drugs, 1998).

What was measured:
Dihydrofolate reductase = molecular target: T1, Dihydrofolate reductase (Mus musculus, UniProt P00375); test: Dihydrofolate reductase activity, L1210; assay type: biochemical; settings: for Dihydrofolate reductase: 60 min, N=6
T1 construct: preparing the appropriate L1210 cell homogenates or subcellular fractions; endogenous in cells; host or cells: L1210 murine lymphoid leukemia cells, homogenate or subcellular fraction
T1 sequence (P00375 1-187): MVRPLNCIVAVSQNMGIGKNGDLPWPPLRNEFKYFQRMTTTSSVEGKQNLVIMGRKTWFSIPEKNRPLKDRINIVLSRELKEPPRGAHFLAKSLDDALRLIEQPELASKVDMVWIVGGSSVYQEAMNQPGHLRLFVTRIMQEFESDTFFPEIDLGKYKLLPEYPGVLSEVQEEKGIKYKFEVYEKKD
From the text: (§1) CYTOTOXlCITY OF POLY(PHENOLIC)SULFONATES AND THEIR SODIUM SALTS IN L1210 LYMPHOID LEUKEMIA CELLS Fei Wang, Amy E. Warren, Cheryl R. Barnes and Iris H. Hall* Division of Medicinal Chemistry and Natural Products University of North Carolina Chapel Hill, N.C. […] Because ofthese properties it was surmised that these poly(phenolic)sulfonated compounds may have antineoplastic activity. METHODS Source of Compounds Test compounds were supplied by GeneLabs, Inc. [Redwood City, CA [Table 1]. Radioisotopes were obtained from New England Nuclear [Dupont, Boston, MA]. Substrates and co-factors were purchased om Sigma Chemical Co., [St Louis, MO]. Pentosan sulfate and other antineoplastic standards were obtained from Sigma Chemical Co. Tumor lines were obtained from American Type Culture Collection [Rockville, MD]. 147 Vol. 5, No. 3, 1998 Cytotoxicity ofSodium Poly(Phenolic)Sulfonates in L1210 Lymphoid Leukemia Cells Table 1 Structures of Poly(phenolic)sulfonate Compounds O2R" n Compound R' R" n MW # G1-2041 H OH 8 1489.46 G1-2029 H OH 6 1117.09 G1-2030 H OH 4 744.73 GI-2021 CH3 ONa 8 1777.5 G1-2057 CH3 ONa 4 888.75 GI-2158 CH3 ONa 6 1333.13 GI-2063 OCH3 ONa 8 2001.65 G1-2042 OAc ONa 8 2017.73 Cytotoxicity Poly(phenolic)sulfonates were tested for cytotoxic activity by homogenizing drug in 0.05% Tween 80/H20 to give a mg/ml stock concentration. These solutions were sterilized by passing them through an acrodisc ([…]). The following cell lines were maintained by literature techniques: murine L1210 lymphoid leukemia, P-388 lymphocytic leukemia, rat UMR 106 osteosarcoma, human Tmolt3 acute lymphoblastic T cell leukemia, HUT-8 lymphoma, HeLa-S suspended cervical carcinoma, HeLa solid cervical carcinoma, KB epidermoid nasopharynx, A431 epidermoid carcinoma, colorectal adenocarcinoma SW480, HCT-8 ileocecal adenocarcinoma, lung bronchogenic MB-9812, A549 lung carcinoma, and glioma HS683. Geran et al.'s protocol was used to assess the cytotoxicity of the compounds and standards in each cell line. Cell numbers were determined by the trypan blue exclusion technique. Solid tumor cytotoxicity was determined by Leibovitz et al. 's method utilizing crystal violeeOH and read at 562 nm (Molecular Devices). Values for cytotoxicity were expressed as EDs0 g/ml, i.e. the concentration ofthe compound inhibiting 50% ofcell growth. A value of less than 4 µg/ml was required for significant activity ofgrowth inhibition. Incorporation Studies Incorporation of labeled precursors into 3H-DNA, 3H -RNA and 3H -protein for 10 L1210 cells was obtained. The concentration response for inhibition of DNA, RNA and protein synthesis of the compounds at 25, 50 and 100 l.tM was determined for 60 min incubations. Incorporation of 14C -glycine (53.0 mCi/mmol) into purines was obtained by the method of Cadman et al.[12]. Incorporation of 4C- formate (53.0 mCi/mmol) into pyrimidines was determined by the method of Christopherson et al.[13]. Enzyme Assays Inhibition of various enzyme activities was performed by first preparing the appropriate L1210 cell homogenates or subcellular fractions, then adding the drug to be tested during the enzyme assay. For the concentration response studies, inhibition of enzyme activity was determined at 25, 50 and 100 l.tM of compounds G1-2021, G1-2029, GI-2041 and G1-2063 after 60 min incubations. DNA polymerase Ot activity was determined in cytoplasmic extracts isolated by Eichler et aL's method. The DNA polymerase assay was described by Sedwick et al.[15] using 3H-TTP. Messenger-, ribosomal- and transfer-RNA polymerase enzymes were isolated with different concentrations of ammonium sulfate; individual RNA polymerase activities were determined using 3H -UTP 16,17]. Ribonucleoside reductase activity was measured using 4C -CDP with dithioerythritol. The deoxyribonucleotides 4C -dCDP were separated from the ribonucleotides by TLC on PEI plates. […]

PRPP amido transferase = molecular target: T2, PRPP amido transferase (Mus musculus, UniProt Q8CIH9); test: PRPP amidotransferase activity, L1210; assay type: biochemical; settings: 60 min, N=6
T2 construct: preparing the appropriate L1210 cell homogenates or subcellular fractions; endogenous in cells; host or cells: L1210 murine lymphoid leukemia cells, homogenate or subcellular fraction
T2 sequence (Q8CIH9 12-517): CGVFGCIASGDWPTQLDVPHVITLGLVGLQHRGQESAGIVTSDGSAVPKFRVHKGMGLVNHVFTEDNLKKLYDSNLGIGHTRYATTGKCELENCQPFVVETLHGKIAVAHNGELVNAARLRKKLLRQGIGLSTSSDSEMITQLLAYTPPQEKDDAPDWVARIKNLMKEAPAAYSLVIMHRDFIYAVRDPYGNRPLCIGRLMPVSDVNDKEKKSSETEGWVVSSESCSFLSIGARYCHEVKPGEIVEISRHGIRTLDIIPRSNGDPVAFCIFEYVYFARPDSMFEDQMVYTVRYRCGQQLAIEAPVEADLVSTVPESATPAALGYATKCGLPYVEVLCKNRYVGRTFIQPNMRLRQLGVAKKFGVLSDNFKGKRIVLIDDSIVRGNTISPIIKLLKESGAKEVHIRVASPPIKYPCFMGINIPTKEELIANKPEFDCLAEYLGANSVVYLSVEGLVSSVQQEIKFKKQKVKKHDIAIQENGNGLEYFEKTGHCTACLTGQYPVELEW
From the text: as §1, with “Enzyme Assays Inhibition of various enzyme activities was performed by first preparing the appropriate L1210 cell homogenates or subcellular fractions, then adding the drug to be tested during the enzyme assay. For the concentration response studies, inhibition of enzyme activity was determined at 25, 50 and 100 l.tM of compounds G1-2021, G1-2029, GI-2041 and G1-2063 after 60 min incubations.” left out, “The DNA polymerase assay was described by Sedwick et al.[15] using 3H-TTP.” left out, “dithioerythritol.” for “dithioerythritol. The deoxyribonucleotides 4C -dCDP were separated from the ribonucleotides by TLC on PEI plates.”

Row | SMILES | dihydrofolate reductase activity reduced (Dihydrofolate reductase; 100 μM after hr) | Dihydrofolate reductase (Dihydrofolate reductase; 100 μM) | PRPP amido transferase (PRPP amido transferase; 25 μM) | PRPP amido transferase (PRPP amido transferase; 50 μM) | Dihydrofolate reductase (Dihydrofolate reductase; 50 μM) | Dihydrofolate reductase (Dihydrofolate reductase; 25 μM) | PRPP amido transferase (PRPP amido transferase; 100 μM)
1 | COc1c2cc(S(=O)(=O)[O-])cc1Cc1cc(S(=O)(=O)[O-])cc(c1OC)Cc1cc(S(=O)(=O)[O-])cc(c1OC)Cc1cc(S(=O)(=O)[O-])cc(c1OC)Cc1cc(S(=O)(=O)[O-])cc(c1OC)Cc1cc(S(=O)(=O)[O-])cc(c1OC)Cc1cc(S(=O)(=O)[O-])cc(c1OC)Cc1cc(S(=O)(=O)[O-])cc(c1OC)C2.[Na+].[Na+].[Na+].[Na+].[Na+].[Na+].[Na+].[Na+] [GI-2021] | 24% | 76+4% of Control | 62+5% of Control | 61+4% of Control | – | – | –
2 | O=S(=O)(O)c1cc2c(O)c(c1)Cc1cc(S(=O)(=O)O)cc(c1O)Cc1cc(S(=O)(=O)O)cc(c1O)Cc1cc(S(=O)(=O)O)cc(c1O)Cc1cc(S(=O)(=O)O)cc(c1O)Cc1cc(S(=O)(=O)O)cc(c1O)C2 [GI-2029] | – | 127+6% of Control | – | 30+3% of Control | 108+5% of Control | – | –
3 | O=S(=O)(O)c1cc2c(O)c(c1)Cc1cc(S(=O)(=O)O)cc(c1O)Cc1cc(S(=O)(=O)O)cc(c1O)Cc1cc(S(=O)(=O)O)cc(c1O)Cc1cc(S(=O)(=O)O)cc(c1O)Cc1cc(S(=O)(=O)O)cc(c1O)Cc1cc(S(=O)(=O)O)cc(c1O)Cc1cc(S(=O)(=O)O)cc(c1O)C2 [GI-2041] | – | 92+5% of Control | – | 38+3% of Control | – | 105+5% of Control | 10+2% of Control
